Measurements taken from PMC6349869, “The palladacycle complex AJ-5 induces apoptotic cell death while reducing autophagic flux in rhabdomyosarcoma cells” (Cell Death Discovery, 2019).

Assays:
[1] = tested on: RMS cell lines including RD and RH30 cells; parameters: method as in PMID 10917549, PMID 11742497; conditions: after 4–5 days of treatment, range of RMS cell lines including RD and RH30; cited from earlier work
RH30 and RD cells = assay: IC50 of doxorubicin established in the cell lines tested; type: cell-based; conditions: Homo sapiens

| IC50 (RH30 and RD cells) [nM] | SMILES | IC50 [1] [nM] |
| --- | --- | --- |
|  | N.N.[Cl][Pt][Cl] [Cisplatin, cisplatin] | > 500 |
| 500 | COc1cccc2c1C(=O)c1c(O)c3c(c(O)c1C2=O)C[C@@](O)(C(=O)CO)C[C@@H]3O[C@H]1C[C@H](N)[C@H](O)[C@H](C)O1 [Doxorubicin, doxorubicin] |  |
